Experimental data as given in patent publication US20250228880A1, “REDOX-ACTIVE COMPOUNDS AND RELATED COMPOUNDS, COMPOSITIONS, METHODS AND SYSTEMS” (CALIFORNIA INSTITUTE OF TECHNOLOGY, priority 2008, published 2025).
“And” between values parts separate entries of the source, which are not always exact repeats. Equal entries are not always repeated. “Also recorded” adds a separate entry of the source. Where two headings read alike, the source gives them in different places.

How the values were obtained:
[1] = system: P. aeruginosa PA14 Δphz mutant; test: Anaerobic survival in bulk electrolysis bioreactor (viable cell counts, CFU); format: cell-based, Pseudomonas aeruginosa; settings: for Support survival?: anaerobic survival of Δphz over 7 days, 10^9 cells/mL, 20 mM D-glucose, about 90 µM compound, electrode at +0.2 V vs. NHE, CFU on LB agar
Experimental: Microbiological methods. P. aeruginosa strain UCBPP-PA14 with deletions of two redundant phenazine biosynthetic operons phzA1-G1 and phzA2-G2, hereafter referred to as the Δphz mutant, was cultivated aerobically at 37° C. in Luria-Bertani (LB) broth (Fisher Scientific) to stationary phase. A washing procedure using centrifugation to collect cell pellets and vortexing to resuspend cell pellets in sterile PBS buffer (recipe) was repeated twice. For centrifugation, the cultures were split into 50 mL sterile centrifuge tubes and centrifuged for 8 minutes at 6000 g, at 4° C. After washing, cell culture was concentrated by resuspending pellets in PBS buffer with one-tenth of original cultural volume. Optical density of this culture was measured at 500 nm using Beckman Coulter D U 800 spectrophotometer. Dilution was performed to yield the OD reading below 0.8. The culture aliquots were then transferred into electrochemical cells with oxygen-free minimal salt medium (20 mM glucose as the carbon source) to serve as the cultures electrochemical studies (see next section for details).
Survival experiments in electrochemical setup. Electrochemical measurements were performed with a Gamry G- potentiostat. All experiments were conducted in an O2— and H2— free glovebox (MBraun) at 30° C. and in the dark. All measured potentials were referenced to a Ag/AgCl electrode (RE-5B, BASi). Reported potentials were referenced to the Normal Hydrogen Electrode NHE (V vs. NHE=V vs. Ag/AgCl+207 mV) to permit comparisons with other studies. A graphite rod (6.15 mm dia ×152 mm long, Alfa Aesar) was used as the working electrode, and the operating surface area was 6 cm^2. The counter electrode was made from a platinum mesh (Alfa Aesar) soldered to a copper wire. The working electrode was in a sample compartment together with the reference electrode. The counter electrode was in another compartment isolated from the working electrode. The two compartments were joined by a fritted glass junction. The controlled potential bulk electrolysis was set at 0 V vs. Ag/AgCl. This potential is mild enough to only oxidize reduced phenazines, but not other components in the cultural medium.
To test whether phenazine electron shuttling can help P. aeruginosa survive, 100 µM phenazine, 20 mM glucose, high or low initial cell densities in the range of 10^9 cells/mL or 10^7 cells/mL were added to the medium to give total 100 mL suspension in the compartment along with the working and reference electrodes, and the potential was applied at 0 V (vs. Ag/AgCl) for 7 days. Cell suspension aliquots were taken as a function of time for viable colony counts. Current and charge transferred were recorded continuously. Cultures without phenazine, or without the potential applied, or without both were served as the controls. To confirm that glucose is used as the carbon source in the case of survival, experiments with or without glucose addition were compared.
To investigate the effect of redox-active small molecules on anaerobic survival of redox active organisms, Applicants tested the effect of redox-active molecule in P. aeruginosa PA14. In particular, Applicants assembled bulk electrolysis-based glass bioreactors housed within an O2— and H2— free glovebox (MBraun) and controlled by a multichannel potentiostat (Gamry, Series G 300) outside the glovebox. Each bioreactor held a graphite rod working electrode (Alfa Aesar) with an operating surface area of 6 cm^2, a Ag/AgCl reference electrode (BASi, RE-5B) with a constant potential of +0.207 V vs. the normal hydrogen electrode (NHE), and about 100 mL MOPS culture medium [100 mM MOPS at pH 7.2, 93 mM NH4Cl, 43 mM NaCl, 2.2 mM KH2PO4, 1 mM MgSO4, […]](modified from ref. (Palmer, K. L., L. M. Mashburn, P. K. Singh, and M. Whiteley. 2005. Cystic fibrosis sputum supports growth and cues key aspects of Pseudomonas aeruginosa physiology. Journal of Bacteriology 187:5267-5277)). […]

[2] = system: P. aeruginosa PA14 Δphz mutant; test: Reduction by PA14 (colour change in survival control experiments without poised potential); format: cell-based, Pseudomonas aeruginosa; settings: intracellular reduction by Δphz cells
[3] = literature values (footnotes a, c, d, e); oxidized form; cited from earlier work
[4] = Reduction potential E0' (cyclic voltammetry); format: physicochemical; settings: measured in aqueous solution at pH 7 in this study (footnote b)
[5] = system: Pseudomonas aeruginosa PA14 phenazine null mutant; test: Colony morphology assay; format: cell-based; settings: pyocyanin added to the growth medium (50 μM HPLC-purified, 1% tryptone, 1% agar plates)
Experimental: In particular, in FIG. 8 is shown how the phenazine null mutant forms smooth colonies in the presence of exogenous phenazines. […] Image was taken after 5 days.
Colony morphology assay: colony morphology assay was performed with Pseudomonas aeruginosa and Streptomyces coelicolor as described herein below: a) Pseudomonas aeruginosa PA 14: Strains were grown in LB medium to late exponential phase, then 10 μl were spotted onto 1% agar plates containing 10 g/L Tryptone Broth, supplemented with […] Congo Red and […] Coomassie Blue as described previously (L. Friedman, R. Kolter, Mot Microbial 51, 675 (2004)). Plates were incubated at room temperature. Colonies were imaged using an Epson Perfection 2400 Photo Scanner at 600 dpi resolution, Nikon stereomicroscope or a digital microscope (Proscope). b) Streptomyces coelicolor A3(2): 10 µl of a spore suspension in water was spotted onto plates with R5-medium. Plates were incubated at room temperature for six days. Colonies were imaged using a Nikon stereomicroscope.

Row | Structure (SMILES) | Support survival? [1] | Reduction by PA14? [2] | E^0′ (vs. NHE) [3] | drop of viable cells ([1]; regardless of bioreactor experimental conditions, 7 days) | E^0′ (vs. NHE) [4] | survival vs. growth at low cell density ([1]; viable cells at 10^7 CFU/mL, data not shown) | drop of viable cells from the original CFU ([1]; without D-glucose, with PYO and the poised potential, by day 6) | colony morphology of the phenazine null mutant [5] | Support survival? ([1]; listed as paraquat) | Reduction by PA14? ([2]; listed as paraquat)
1 | Oc1cccc2nc3ccccc3nc12 [1-OHPHZ, 1-hydroxyphenazine] | promote anaerobic survival and Yes | Yes | −174^a mV |  |  |  |  |  |  | 
2 | O=C1c2ccc(S(=O)(=O)O)cc2C(=O)c2ccc(S(=O)(=O)O)cc21 [2,6-AQDS] | No | only a small portion of 2,6-AQDS was reduced; also recorded: Yes (very slowly) | −184^d mV |  |  |  |  |  |  | 
3 | O=C(O)Cc1cc(O)ccc1O [HMA, Homogentisic acid] | cannot support Δphz survival and No |  |  |  |  |  |  |  |  | 
4 | CN(C)c1ccc2nc3ccc(=[N+](C)C)cc-3sc2c1 [MB, Methylene blue] | cannot support Δphz survival and No | reduced intracellularly and Yes | +11 mV | 3 orders of magnitude | 0 mV |  |  |  |  | 
5 | O=C(O)c1cccc2nc3ccccc3nc12 [PCA, phenazine-1-carboxylic acid] | promote anaerobic survival and Yes | Yes | −114^a mV |  |  |  |  |  |  | 
6 | C[n+]1c2ccccc2nc2c([O-])cccc21 [PYO, Pyocyanin] | promote anaerobic survival and Yes | Yes | −40^a mV |  |  | supported only survival but not growth | 4 orders of magnitude | smooth compact colonies |  | 
7 | C[n+]1ccc(-c2cc[n+](C)cc2)cc1 [Paraquat] | No | No | −446 mV and −446^e mV |  |  |  |  |  | cannot support anaerobic survival of Δphz | cannot be reduced by Δphz
